For assay [1], the target named is T1, proMMP9(20-445;ΔFnII) (SEQ ID NO:6) (Homo sapiens, UniProt P14780, DEL216-390).
T1 construct: start methionine (N); made in house; host or cells: E. coli BL21(DE3) RIL
T1 sequence (P14780 with tags, fused parts or gaps DEL216-390): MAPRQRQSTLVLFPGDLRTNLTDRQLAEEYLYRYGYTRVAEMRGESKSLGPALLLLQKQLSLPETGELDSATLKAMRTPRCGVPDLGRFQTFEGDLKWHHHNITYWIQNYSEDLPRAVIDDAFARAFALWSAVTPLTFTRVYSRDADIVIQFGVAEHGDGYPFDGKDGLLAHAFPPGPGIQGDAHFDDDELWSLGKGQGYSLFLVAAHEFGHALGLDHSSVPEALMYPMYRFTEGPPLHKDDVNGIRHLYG
As to the kind of experiment: ThermoFluor binding assay with proMMP9(20-445;ΔFnII). The gist of the method:
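Protein thermal stability was measured with 2.8 μM proMMP9(20-445;ΔFnII) and 50 μM 1,8-ANS in 50 mM HEPES pH 7.0, 100 mM NaCl, 0.001% Tween-20, 2.5 mM MgCl2, 300 μM CaCl2, across serial compound dilutions. Samples were heated 40–90° C at 1° C/min with fluorescence read at 500 nm. Tm was fitted, and binding was derived from thermodynamic parameters obtained by DSC and ThermoFluor.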

The target of assay [2] is T2, proMMP9(67-444;ΔFnII) (SEQ ID NO:5) (Homo sapiens, UniProt P14780, DEL216-390).
T2 construct: start methionine (N); made in house; host or cells: E. coli BL21(DE3) RIL
T2 sequence (P14780 with tags, fused parts or gaps DEL216-390): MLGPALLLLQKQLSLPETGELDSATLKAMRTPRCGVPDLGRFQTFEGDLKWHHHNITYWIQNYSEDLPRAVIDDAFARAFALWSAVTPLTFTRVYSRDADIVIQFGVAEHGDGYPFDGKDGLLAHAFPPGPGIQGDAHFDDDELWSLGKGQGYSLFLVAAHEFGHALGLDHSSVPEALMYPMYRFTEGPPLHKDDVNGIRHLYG
As to the kind of experiment: ThermoFluor binding assay with proMMP9(67-444;ΔFnII). In a few lines: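 Thermal shift of 3.5 μM proMMP9(67-444;ΔFnII), desalted beforehand, with 50 μM 1,8-ANS in 50 mM HEPES pH 7.0, 100 mM NaCl, 2.5 mM MgCl2, 300 μM CaCl2, 0.001% Tween-20. Heated 40–90 °C at 1 °C/min, fluorescence read at 500 nm; binding fitted from Tm shifts using DSC- and ThermoFluor-derived unfolding parameters.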

Assay [3] has as its target T3, full-length proMMP9(1-707) activation by catalytic MMP3 (Homo sapiens, UniProt P14780, R574P).
T3 construct: made in house; host or cells: proMMP9: HEK293 (secreted); MMP3: E. coli
Briefly: proMMP9/MMP3 P126 Activation Assay. The class given is biochemical. Here is the method:
proMMP9/MMP3 P126 Activation Assay
The reaction volume was 50 μL. […] Reactivity of residual MMP3 towards P-126 substrate was minimal under these conditions.

Counter-ions that a name gives are not always drawn.

T3 sequence (P14780 20-707 R574P): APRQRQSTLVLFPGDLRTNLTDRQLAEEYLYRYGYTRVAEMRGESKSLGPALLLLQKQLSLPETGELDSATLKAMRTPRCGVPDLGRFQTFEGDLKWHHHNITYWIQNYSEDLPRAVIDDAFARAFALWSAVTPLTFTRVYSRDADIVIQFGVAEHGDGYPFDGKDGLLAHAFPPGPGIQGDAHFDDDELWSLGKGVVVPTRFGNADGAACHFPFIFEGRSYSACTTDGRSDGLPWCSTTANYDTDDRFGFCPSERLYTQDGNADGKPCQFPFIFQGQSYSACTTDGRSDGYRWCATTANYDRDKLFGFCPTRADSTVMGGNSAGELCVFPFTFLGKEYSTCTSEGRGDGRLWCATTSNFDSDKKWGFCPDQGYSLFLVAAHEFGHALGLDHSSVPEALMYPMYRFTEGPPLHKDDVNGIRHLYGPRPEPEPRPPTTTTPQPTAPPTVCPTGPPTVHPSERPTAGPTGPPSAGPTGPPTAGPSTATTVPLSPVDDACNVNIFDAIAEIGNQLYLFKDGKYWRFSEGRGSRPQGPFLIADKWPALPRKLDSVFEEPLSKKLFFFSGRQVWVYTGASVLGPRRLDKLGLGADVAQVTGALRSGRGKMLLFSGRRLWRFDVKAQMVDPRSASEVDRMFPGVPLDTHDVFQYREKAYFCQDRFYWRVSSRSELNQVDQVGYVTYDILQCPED

With `CC(C)Oc1ccc(C(N)=O)cc1Nc1nc2c(ccc3[nH]nnc32)s1` [Example 47, 4-Isopropoxy-3-(3H-thiazolo[4′,5′:3,4]benzo[1,2-d][1,2,3]triazol-7-ylamino)-benzamide.HCl], the Kd was found to be 1 µM in assay [1] and 1600 nM in assay [2]. Besides, the IC50 in assay [3] turned out to be 600 nM.
Regarding `Cn1cnc2c3nc(Nc4cccnc4)sc3ccc21` [Example 75, (6-Methyl-6H-imidazo[4′,5′:3,4]-benzo[2,1-d]thiazol-2-yl)-pyridin-3-yl-amine.HCl], the figures for the Kd in assay [1] and in assay [2] were more than 95 µM and 15000 nM, respectively. The same compound came in with an IC50 in assay [3] of approximately 18000 nM.
In the same order, the values of `CC(C)Oc1ccc(S(N)(=O)=O)cc1Nc1nc2c(ccc3ncn(C)c32)s1` [Example 131, 4-Isopropoxy-3-(8-methyl-8H-imidazo[4′,5′:3,4]benzo[2,1-d]thiazol-2-ylamino)-benzenesulfonamide.TFA] are more than 95 µM, 2000 nM and 590 nM.
On to `COc1ccccc1Nc1nc2c(ccc3ncn(C)c32)s1` [Example 132, (2-Methoxy-phenyl)-(8-methyl-8H-imidazo[4′,5′:3,4]benzo[2,1-d]thiazol-2-yl)-amine.TFA], for which the Kd in assay [1] is more than 95 µM; in assay [2], 26000 nM. This compound returned a half-inhibitory concentration (IC50) in assay [3] of 1400 nM.
In the same order, the values of `COc1ccc(-c2cn[nH]c2)cc1Nc1nc2c(ccc3c2ncn3C)s1` [Example 70, [2-Methoxy-5-(1H-pyrazol-4-yl)-phenyl]-(6-methyl-6H-imidazo[4′,5%3,4]benzo[2,1-d]thiazol-2-yl)-amine.HCl] are 0.56 µM, 120 nM and 310 nM.
On the same counts, the results for `COc1ccc(S(N)(=O)=O)cc1Nc1nc2c(ccc3nc(C)n(C)c32)s1` [Example 123, 3-(7,8-Dimethyl-8H-imidazo[4′,5′:3,4]-benzo[2,1-d]thiazol-2-ylamino)-4-methoxy-benzenesulfonamide.TFA] are 5.3 µM, 4700 nM and 810 nM.
In the same order, the values of `COc1ccc(S(=O)(=O)N2CCOCC2)cc1Nc1nc2c(ccc3c2ncn3C)s1` [Example 81, [2-Methoxy-5-(morpholine-4-sulfonyl)-phenyl]-(6-methyl-6H-imidazo[4′,5′:3,4]benzo[2,1-d]thiazol-2-yl)-amine.HCl] are 5.2 µM, 1200 nM and 750 nM.
For the compound `COc1ccc(S(C)(=O)=O)cc1Nc1nc2c(ccc3c2cnn3CCC(C)C)s1` [Example 109, (5-Methanesulfonyl-2-methoxy-phenyl)-[6-(3-methyl-butyl)-6H-3-thia-1,6,7-triaza-as-indacen-2-yl]-amine.TFA], the values for the Kd in assay [1] and in assay [2] were more than 95 µM and 2300 nM, respectively. Besides, the IC50 in assay [3] is approximately 2000 nM.
In the same order, the values of `Cc1nc2ccc3sc(Nc4cc(S(C)(=O)=O)ccc4OC(C)C)nc3c2n1CC(F)(F)F` [Example 145, (2-Isopropoxy-5-methanesulfonyl-phenyl)-[7-methyl-8-(2,2,2-trifluoro-ethyl)-8H-imidazo[4′,5′:3,4]benzo[2,1-d]thiazol-2-yl]-amine.TFA] are 2.5 µM, 560 nM and 390 nM.
With `Cc1nc2ccc3sc(Nc4cc(F)ccc4OC(C)C)nc3c2n1C` [Example 140, (7,8-Dimethyl-8H-imidazo[4′,5′:3,4]benzo[2,1-d]thiazol-2-yl)-(5-fluoro-2-isopropoxy-phenyl)-amine.TFA], the Kd was more than 95 µM in assay [1] and 810 nM in assay [2]. For the same compound, half-maximal inhibition in assay [3] (IC50) was put at 410 nM.
For `CCn1c(C)nc2ccc3sc(Nc4cc(S(N)(=O)=O)ccc4OC(C)C)nc3c21` [Example 118, 3-(8-Ethyl-7-methyl-8H-imidazo[4′,5′:3,4]benzo[2,1-d]thiazol-2-ylamino)-4-isopropoxy-benzenesulfonamide.TFA], the Kd was determined as 0.29 µM in assay [1] and 860 nM in assay [2]. The 50% inhibitory concentration (IC50) in assay [3] stood at 510 nM.
Take `Cn1ncc2c3nc(Nc4cc(S(N)(=O)=O)ccc4OC(F)(F)F)sc3ccc21` [Example 101, 3-(6-Methyl-6H-3-thia-1,6,7-triaza-as-indacen-2-ylamino)-4-trifluoromethoxy-benzenesulfonamide.TFA]: the dissociation constant Kd in assay [1] turned out to be 0.79 µM; in assay [2], 430 nM. For the same compound, the IC50 in assay [3] was found to be 760 nM.
Take `COc1ccccc1Nc1nc2c(ccc3c2ncn3C)s1` [Example 46, (2-Methoxy-phenyl)-(6-methyl-6H-imidazo[4′,5′:3,4]benzo[2,1-d]thiazol-2-yl)-amine.HCl]: the Kd came out at 0.64 µM in assay [1] and 240 nM in assay [2]. For the same compound, in assay [3], the IC50 worked out at 150 nM.
In the same order, the values of `COc1ccc(S(C)(=O)=O)cc1Nc1nc2c(ccc3c2cnn3CC(C)C)s1` [Example 108, (6-Isobutyl-6H-3-thia-1,6,7-triaza-as-indacen-2-yl)-(5-methanesulfonyl-2-methoxy-phenyl)-amine.TFA] are more than 95 µM, 1400 nM and 650 nM.
Consider `COc1ccc(S(C)(=O)=O)cc1Nc1nc2c(ccc3cnn(C)c32)s1` [Example 150, (5-Methanesulfonyl-2-methoxy-phenyl)-(1-methyl-1H-6-thia-1,2,8-triaza-as-indacen-7-yl)-amine.TFA], for which the Kd in assay [1] was determined as 8.8 µM; in assay [2], 1200 nM. In assay [3], 340 nM corresponded to half-maximal inhibition (IC50).
In the same order, the values of `COc1ccc(S(N)(=O)=O)cc1Nc1nc2c(ccc3ncn(C)c32)s1` [Example 130, 4-Methoxy-3-(8-methyl-8H-imidazo[4′,5′:3,4]benzo[2,1-d]thiazol-2-ylamino)-benzenesulfonamide.TFA] are more than 95 µM, 1200 nM and 830 nM.
In the same order, the values of `CC(C)Oc1ccc(S(N)(=O)=O)cc1Nc1nc2c(ccc3c2cnn3C)s1` [Example 102, 4-Isopropoxy-3-(6-methyl-6H-3-thia-1,6,7-triaza-as-indacen-2-ylamino)-benzenesulfonamide.TFA] are 0.25 µM, 680 nM and 390 nM.
For `CCCn1ncc2c3nc(Nc4cc(S(C)(=O)=O)ccc4OC)sc3ccc21` [Example 111, (5-Methanesulfonyl-2-methoxy-phenyl)-(6-propyl-6H-3-thia-1,6,7-triaza-as-indacen-2-yl)-amine.TFA], the Kd turned out to be 3.1 µM in assay [1] and 1700 nM in assay [2]. In addition, the IC50 in assay [3] was found to be 370 nM.
On the same counts, the results for `COc1ccc(S(C)(=O)=O)cc1Nc1nc2c(ccc3[nH]ncc32)s1` [Example 110, (5-Methanesulfonyl-2-methoxy-phenyl)-(6H-3-thia-1,6,7-triaza-as-indacen-2-yl)-amine.TFA] are more than 95 µM, 340 nM and 260 nM.
`Cn1cnc2c3nc(Nc4ccccc4[N+](=O)[O-])sc3ccc21` [Example 77, (6-Methyl-6H-imidazo[4′,5′:3,4]-benzo[2,1-d]thiazol-2-yl)-(2-nitro-phenyl)-amine.HCl]: the Kd in assay [1] amounted to 3.2 µM; in assay [2], 2600 nM. In assay [3], this compound showed an IC50 of 1100 nM.
In the same order, the values of `CCn1c(C)nc2ccc3sc(Nc4ccccc4OC)nc3c21` [Example 120, (8-Ethyl-7-methyl-8H-imidazo[4′,5′:3,4]benzo[2,1-d]thiazol-2-yl)-(2-methoxy-phenyl)-amine.TFA] are 3.4 µM, 2600 nM and 480 nM.
On the same counts, the results for `CCOc1ccccc1Nc1nc2c(ccc3sc(Nc4ccccc4OCC)nc32)s1` [Example 4, N,N′-Bis-(2-ethoxy-phenyl)-benzo[2,1-d;3,4-d′]bisthiazole-2,7-diamine.TFA] are 67 µM, 30000 nM and 4700 nM.
In the same order, the values of `COc1ccc(S(C)(=O)=O)cc1Nc1nc2c(ccc3nc(C)n(C)c32)s1` [Example 134, (7,8-Dimethyl-8H-imidazo[4′,5′:3,4]benzo[2,1-d]thiazol-2-yl)-(5-methanesulfonyl-2-methoxy-phenyl)-amine.TFA] are 1.6 µM, 900 nM and 260 nM.
As for `CC(C)Oc1ccc(F)cc1Nc1nc2c(ccc3ncn(CC(F)(F)F)c32)s1` [Example 142, (5-Fluoro-2-isopropoxy-phenyl)-[8-(2,2,2-trifluoro-ethyl)-8H-imidazo[4′,5′:3,4]-benzo[2,1-d]thiazol-2-yl]-amine.TFA], the Kd in assay [1] was more than 95 µM; in assay [2] it was 2400 nM. The same compound returned a half-inhibitory concentration (IC50) in assay [3] of 1800 nM.
